In the assay the target is human recombinant PDE4B1 enzyme (Homo sapiens (Human), UniProt Q07343). The experiment in a line: Inhibition of PDE4B1 activity by cAMP HTRF assay. In kind it is biochemical. As to conditions: human recombinant PDE4B1, cAMP 40 nM, pH 7.4. How it is done:
Determination of the inhibition of the compounds on PDE4B1 activity by using cAMP HTRF® assay
The inhibitory effect of the compounds on human PDE4B1 enzyme activity was determined by quantifying the 5′-adenosine monophosphate (5′-AMP) formed from 3′,5′-cyclic adenosine monophosphate (cAMP).
The test compound or water (control) and human recombinant PDE4B1 enzyme (4.8 U) were mixed in a buffer solution (pH 7.4) consisting of 1× Hanks' balanced salt solution (HBSS), 5 mM HEPES, 3 mM MgCl2, and 0.1% BSA and incubated for 10 min. A cAMP enzyme substrate (final concentration 40 nM) was added, and the mixture was incubated at room temperature for 60 min. Then a fluorescent acceptor (Dye2 labeled with cAMP), a fluorescent donor (anti-cAMP antibody labeled with europium cryptate) and a non-specific phosphodiesterase inhibitor IBMX (3-isobutyl-1-methyl xanthine; final concentration 1 mM) were added. After 60 min, the fluorescence transfer related to the amount of remaining cAMP was measured on a microplate reader (Rubystar, BMG) at λex=337 nm, λem=620 nm and λem=665 nm. The enzyme activity is calculated from the ratio of the signals measured at 665 nm and 620 nm. The results are expressed as percent inhibition of the enzyme activity of the control (without PDE4 inhibitor). The enzyme was omitted for measurement of the basic control. The IC50 value (IC50=the concentration that caused the half-maximum inhibition of the specific activity of the control) is derived from dose-response measurements with eight different concentrations (n=2; repeated 2 times)
Sequence of human recombinant PDE4B1 enzyme (Q07343 whole entry): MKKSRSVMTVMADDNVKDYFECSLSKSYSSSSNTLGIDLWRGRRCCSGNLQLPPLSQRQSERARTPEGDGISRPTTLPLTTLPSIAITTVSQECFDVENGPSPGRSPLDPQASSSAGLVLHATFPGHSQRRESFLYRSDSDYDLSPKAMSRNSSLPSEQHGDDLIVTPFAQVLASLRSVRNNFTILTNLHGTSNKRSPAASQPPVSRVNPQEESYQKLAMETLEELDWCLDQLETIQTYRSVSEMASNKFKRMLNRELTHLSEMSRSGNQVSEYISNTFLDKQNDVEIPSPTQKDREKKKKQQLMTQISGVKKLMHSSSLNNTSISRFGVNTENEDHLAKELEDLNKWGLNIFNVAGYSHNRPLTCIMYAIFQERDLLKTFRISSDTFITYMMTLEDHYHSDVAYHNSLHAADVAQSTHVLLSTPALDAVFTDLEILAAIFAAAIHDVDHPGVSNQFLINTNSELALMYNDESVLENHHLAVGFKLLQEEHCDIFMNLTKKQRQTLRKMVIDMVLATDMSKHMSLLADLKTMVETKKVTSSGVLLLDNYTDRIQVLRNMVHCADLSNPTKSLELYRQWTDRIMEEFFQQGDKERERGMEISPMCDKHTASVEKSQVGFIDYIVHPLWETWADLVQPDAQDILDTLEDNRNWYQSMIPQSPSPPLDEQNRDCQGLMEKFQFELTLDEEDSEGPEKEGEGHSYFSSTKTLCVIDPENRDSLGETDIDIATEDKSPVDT
As to `COc1ccc(/C(Cn2c(C)cc(=O)cc2C)=N\OCSC)cc1OCC1CC1` [Example 42, (E)-1-(2-(3-cyclopropylmethoxy-4-methoxyphenyl)-2-(methylthiomethoxyimido)ethyl)-2,6-dimethylpyridin-4(1H)-one], the IC50 – broadly, the midpoint of a concentration-inhibition curve – was determined as 8.2 nM.
With `CC#C/C(=C\n1c(C)cc(=O)cc1C)c1ccc(OC(F)F)c(OCC2CC2)c1` [Example 114, (Z)-1-(2-(3-cyclopropylmethoxy-4-difluoromethoxyphenyl)pent-1-en-3-yn-1-yl)-2,6-dimethylpyridin-4(1H)-one], the IC50 was 1.6 nM.
For the molecule `COc1ccc(C(=O)Cn2c(C)cc(=O)cc2C)cc1OC1CCCO1` (centres unmarked) [Example 31, 1-(2-(3-(tetrahydrofuran-2-yl)oxy-4-methoxyphenyl)-2-oxoethyl)-2,6-dimethylpyridin-4(1H)-one], the IC50 was found to be 26 nM.
Under `COc1ccc(C(=O)Cn2c(C)cc(=O)cc2C)cc1OC1CC=CC1` [Example 25, 1-(2-(3-(cyclopent-3-en-1-yloxy)-4-methoxyphenyl)-2-oxoethyl)-2,6-dimethylpyridin-4(1H)-one] stands 11.5 nM.
For `COc1ccc(/C=C/n2c(C)cc(=O)cc2C)cc1O[C@H]1CC[S+]([O-])C1` (single isomer, unassigned) [Example 83-2], the IC50 turned out to be 106 nM.
`COc1ccc(/C=C/n2c(C)cc(=O)cc2C)cc1OC1CCCO1` (centres unmarked) [Example 70, (E)-1-((3-(tetrahydrofuran-2-yl)oxy-4-methoxy)-styryl)-2,6-dimethylpyridin-4(1H)-one]: the IC50 came to 8.1 nM.
Take `COc1ccc(/C=C/n2c(C)cc(=O)cc2C)cc1OCC[S+](C)[O-]` (centres unmarked) [Example 78, (E)-1-(3-methylsulfoxideethoxy-4-methoxystyryl)-2,6-dimethylpyridin-4(1H)-one]: the IC50 worked out at 36 nM.
Take `C/C=C/C(=O)OC(Cn1c(C)cc(=O)cc1C)c1ccc(OC)c(OCC2CC2)c1` (centres unmarked) [Example 6, (1-(3-cyclopropylmethoxy-4methoxyphenyl)-2-(2,6-dimethyl-4-carbonylpyridin-1(4H)-yl)ethyl) crotonate]: the IC50 was 19 nM.
Turning to `CCCCCOc1cc(C(=O)Cn2c(C)cc(=O)cc2C)ccc1OC` [Example 17, 1-(2-(3-n-pentyloxy-4-methoxyphenyl)-2-oxoethyl)-2,6-dimethylpyridin-4(1H)-one], the IC50 amounted to 16 nM.
Under `Cc1cc(=O)cc(C)n1/C=C/c1ccc(OC(F)F)c(OCCS(C)(=O)=O)c1` [Example 95, (E)-1-(3-methylsulfoneethoxy-4-difluoromethoxystyryl)-2,6-dimethylpyridin-4(1H)-one] stands 260 nM.
`Cc1cc(=O)cc(C)n1/C=C/c1ccc(OC(F)F)c(O[C@@H]2CCS(=O)(=O)C2)c1` [Example 102, (R,E)-1-(3-(1,1-dioxotetrahydrothiophen-3-yl)oxy-4-difluoromethoxystyryl)-2,6-dimethylpyridin-4(1H)-one]: the IC50 came out at 50 nM.
With `COc1ccc(/C=C/n2c(C)cc(=O)cc2C)cc1O[C@@H]1CCSC1` [Example 85, (R,E)-1-(3-(tetrahydrothiophen-3-yl)oxy-4-methoxystyryl)-2,6-dimethylpyridin-4(1H)-one], the IC50 stood at 3.8 nM.
On to `COc1ccc(C(=O)Cn2c(C)cc(=O)cc2C)cc1OC[S+](C)[O-]` (centres unmarked) [Example 33, 1-(2-(3-methylsulfoxidemethoxy-4-methoxyphenyl)-2-oxoethyl)-2,6-dimethylpyridin-4(1H)-one], for which the IC50 was 830 nM.
Consider `COc1ccc(C(=O)Cn2ccc(=O)cc2C)cc1OCC1CC1` [Example 46, 1-(2-(3-cyclopropylmethoxy-4-methoxyphenyl)-2-oxoethyl)-2-methylpyridin-4(1H)-one], for which the IC50 turned out to be 25 nM.
To `Cc1cc(=O)cc(C)n1/C=C/c1ccc(OC(F)F)c(O[C@@H]2CC[S+]([O-])C2)c1` (single isomer, unassigned) [Example 101-1] belongs 99 nM; to `Cc1cc(=O)cc(C)n1/C=C/c1ccc(OC(F)F)c(O[C@H]2CCSC2)c1` [Example 97, (S,E)-1-(3-(tetrahydrothiophen-3-yl)oxy-4-difluoromethoxystyryl)-2,6-dimethylpyridin-4(1H)-one], 3.7 nM.
To `CC#CC(=O)OC(Cn1c(C)cc(=O)cc1C)c1ccc(OC)c(OCC2CC2)c1` (centres unmarked) [Example 8, (1-(3-cyclopropylmethoxy-4methoxyphenyl)-2-(2,6-dimethyl-4-carbonylpyridin-1(4H)-yl)ethyl) but-2-ynoate] belongs 23 nM; to `COc1ccc(C(=O)Cn2c(C)cc(=O)cc2C)cc1OCS(C)(=O)=O` [Example 34, 1-(2-(3-methylsulfonemethoxy-4-methoxyphenyl)-2-oxoethyl)-2,6-dimethylpyridin-4(1H)-one], 420 nM; to `COc1ccc(/C=C/n2ccc(=O)cc2)cc1OCC1CC1` [Example 50, (E)-1-(3-cyclopropylmethoxy-4-methoxystyryl)pyridin-4(1H)-one], 180 nM.
With `COc1ccc(/C(Cn2c(C)cc(=O)cc2C)=N/OC[S+](C)[O-])cc1OCC1CC1` (centres unmarked) [Example 43, (Z)-1-(2-(3-cyclopropylmethoxy-4-methoxyphenyl)-2-(methylsulfoxidemethoxyimido)ethyl)-2,6-dimethylpyridin-4(1H)-one], the IC50 came to 4.9 nM.
Under `COc1ccc(C(=O)Cn2c(C)cc(=O)cc2C)cc1OCC[S+](C)[O-]` (centres unmarked) [Example 36, 1-(2-(3-methylsulfoxideethoxy-4-methoxyphenyl)-2-oxoethyl)-2,6-dimethylpyridin-4(1H)-one] stands 1250 nM.
Regarding `COc1ccc(C(Cn2c(C)cc(=O)cc2C)OC(=O)C2CC2)cc1OCC1CC1` (centres unmarked) [Example 4, (1-(3-cyclopropylmethoxy-4methoxyphenyl)-2-(2,6-dimethyl-4-carbonylpyridin-1(4H)-yl)ethyl) cyclopropylcarboxylate], the IC50 was 36 nM.
To `COc1ccc(/C=C/n2c(C)cc(=O)cc2C)cc1OC(C)C` [Example 54, (E)-1-(3-isopropoxy-4-methoxystyryl)-2,6-dimethylpyridin-4(1H)-one] belongs 26 nM.
Turning to `CCCCOc1cc(/C=C/n2c(C)cc(=O)cc2C)ccc1OC` [Example 55, (E)-1-((3-n-butoxy-4-methoxy)-styryl)-2,6-dimethylpyridin-4(1H)-one], the IC50 turned out to be 54 nM.
In the case of `COc1ccc(/C=C/n2c(C)cc(=O)cc2C)cc1OC1CSC1` [Example 69, (E)-1-((3-(thiacyclobutan-3-yl-oxy)-4-methoxy)-styryl)-2,6-dimethylpyridin-4(1H)-one], the half-maximal inhibitory concentration (IC50) amounted to 5200 nM.
In the case of `COc1ccc(C(=O)Cn2ccc(=O)cc2)cc1OCC1CC1` [Example 45, 1-(2-(3-cyclopropylmethoxy-4-methoxyphenyl)-2-oxoethyl)pyridin-4(1H)-one], the IC50 was 170 nM.
`CNC(=O)COc1cc(/C=C/n2c(C)cc(=O)cc2C)ccc1OC` [Example 71, (E)-2-(5-(2-(2,6-dimethyl-4-carbonylpyridin-1(4H)-yl)ethenyl)-2methoxyphenoxy)-N-methylacetamide]: the IC50 worked out at 1420 nM.
To `COc1ccc(/C=C/n2c(C)cc(=O)cc2C)cc1O[C@H]1CCS(=O)(=O)C1` [Example 84, (S,E)-1-(3-((1,1-dioxotetrahydrothiophen-3-yl)oxy)-4-methoxy-styryl)-2,6-dimethylpyridin-4(1H)-one] belongs 230 nM; to `COc1ccc(CCn2c(C)cc(=O)cc2C)cc1OCC1CC1` [Example 60, (E)-1-(3-cyclopropylmethoxy-4-methoxyphenethyl)-2,6-dimethylpyridin-4(1H)-one], 1200 nM.
Under `COc1ccc(/C=C/n2c(C)cc(=O)cc2C)cc1O[C@@H]1CCS(=O)(=O)C1` [Example 87, (R,E)-1-(3-((1,1-dioxotetrahydrothiophen-3-yl)oxy)-4-methoxy-styryl)-2,6-dimethylpyridin-4(1H)-one] stands 78 nM; under `Cc1cc(=O)cc(C)n1/C=C/c1ccc(OC(F)F)c(OCC[S+](C)[O-])c1` (centres unmarked) [Example 94, (E)-1-(3-methylsulfoxideethoxy-4-difluoromethoxystyryl)-2,6-dimethylpyridin-4(1H)-one], 137 nM; under `COc1ccc(C(C#N)=Cn2c(C)cc(=O)cc2C)cc1OCC1CC1` (stereo in doubt) [Example 106, (E)-1-(2-(3-cyclopropylmethoxy-4-methoxyphenyl)-2-cyanoethenyl)-2,6-dimethylpyridin-4(1H)-one], 2.7 nM.
For `CSCCOc1cc(/C=C/n2c(C)cc(=O)cc2C)ccc1OC(F)F` [Example 93, (E)-1-(3-methylthioethoxy-4-difluoromethoxystyryl)-2,6-dimethylpyridin-4(1H)-one], the IC50 is 12.9 nM.
On to `COc1ccc(/C(=C/n2c(C)cc(=O)cc2C)C(N)=O)cc1OCC1CC1` [Example 107, (Z)-2-(3-cyclopropylmethoxy-4-methoxyphenyl)-3-(2,6-dimethyl-4-carbonylpyridin-1(4H)-yl)-acrylamide], for which the IC50 is 450 nM.
Regarding `COc1ccc(/C=C/n2c(C)cc(=O)cc2C)cc1OC1CCCC1` [Example 62, (E)-1-((3-cyclopentyloxy-4-methoxy)-styryl)-2,6-dimethylpyridin-4(1H)-one], the IC50 was 10.2 nM.
